Assays:
Assay type in all cases: in vivo
[1] = system: Culex pipiens pallens; assay: Test method 12: last-instar larvae of Culex pipiens pallens released into diluted solution; conditions: 24 h, 30 last-instar larvae, one day later, 25°C
Procedure: The test compound is formulated according to the method described in Formulation Example 1, and water is added thereto to prepare a diluted solution containing the test compound at a predetermined concentration. 30 last-instar larvae of Culex pipiens pallens are released into the diluted solution, and the state of the larvae of Culex pipiens is examined one day later to determine the Mortality. The mortality is calculated by the following equation. [formula]

[2] = system: cotton aphids (Aphis gossypii); assay: Test method 11: foliar spray on cucumber seedlings inoculated with cotton aphids (formulation per Formulation Example 5); conditions: 120 h, sprayed 10 mL/seedling one day after inoculation, after 5 days, 25°C, read-out: control value
[3] = system: diamondback moth (Plutella xylostella); assay: Test method 4: sprayed cabbage foliage cut out, second instar larvae of diamondback moth released; conditions: foliar, 120 h, sprayed 20 mL/seedling, five second instar larvae, after 5 days, 25°C
Procedure: A test compound is formed into a formulation according to the method described in Formulation Example 1, and water containing 0.03% by volume of Shindain (registered trademark) is added thereto to prepare a diluted solution containing the test compound at a predetermined concentration.
A cabbage (Brassicae oleracea) seedling (2 to 3 true leaf stage) planted in a container is sprayed with the diluted solution at a rate of 20 mL/seedling. Thereafter, the foliage portion of the seedling is cut out and placed in a container on which filter paper is laid. Thereto are released five second instar larvae of diamondback moth (Plutella xylostella). After 5 days, the number of surviving insects is counted, and the mortality is determined from the following equation. [formula]

[4] = system: cotton aphids (Aphis gossypii); assay: Test method 1: foliar spray on cucumber seedlings inoculated with cotton aphids (formulation per Formulation Example 1); parameters: mortality: concentration or dose not given beside the values; conditions: 120 h, sprayed 10 mL/seedling one day after inoculation, surviving insects examined after 5 days, 25°C, read-out: control value
[5] = system: diamondback moth (Plutella xylostella); assay: Test method 10: sprayed cabbage seedling, third instar larvae of diamondback moth released; conditions: 144 h, sprayed 20 mL/seedling, 10 third instar larvae, after 6 days, 25°C
Procedure: A test compound is formed into a formulation according to the method described in Formulation Example 5, and water containing 0.03% by volume of Shindain (registered trademark) is added thereto to prepare a diluted solution containing the test compound at a predetermined concentration.
A cabbage (Brassicae oleracea) seedling (3 to 4 true leaf stage) planted in a container is sprayed with the diluted solution at a rate of 20 mL/seedling. Thereafter, 10 third instar larvae of diamondback moth (Plutella xylostella) are released. After 6 days, the number of surviving insects is counted, and the mortality is determined from the following equation. [formula]

[6] = system: Aphis gossypii; assay: Test method 2: soil irrigation of cucumber seedlings, later inoculated with Aphis gossypii; conditions: 144 h, irrigated 5 mL/seedling, inoculated after 7 days, surviving insects examined after 6 days, 25°C, read-out: control value
Procedure: The test compound is formulated according to the method described in Formulation Example 5, and water is added thereto to prepare a diluted solution containing the test compound at a predetermined concentration. A cucumber (Cucumis sativus) seedling (second true leaf stage) planted in a container is irrigated with the diluted solution at a rate of 5 mL/seedling. After 7 days, the leaf surface of this seedling is inoculated with about 30 Aphis gossypii (whole stage). After 6 days, the number of surviving insects is examined, and the control value is determined by the following formula. [formula] • Characters in the formula represent the following meanings. • Cb: number of test insects in a non-treated section • Cai: number of surviving insects in a non-treated section at the time of investigation • Tb: number of test insects in a treated section • Tai: number of surviving insects in a treated section at the time of investigation Herein, the non-treated section means a section that is subjected to the same operation as that of the treated section except that the test compound is not used.

SMILES | mortality at 3.5 ppm [1] | mortality at 50 ppm [2] | mortality at 200 ppm [2] | mortality at 500 ppm [3] | mortality at 500 ppm [4] | mortality at 50 ppm [5] | mortality at 200 ppm [5] | mortality at 1000 ppm [6] | mortality [4]
CCS(=O)(=O)c1c(N(C)C(=O)c2cc(OC(F)F)n(C)n2)nc2ccc(I)cn12 [compound 55] | > 90% | – | – | – | – | – | – | – | –
CCSc1c(N(C)C(=O)c2ccc(C(F)(F)F)o2)nc2ccc(I)cn12 [compound 5] | > 90% | ≥ 90% | ≥ 90% | ≥ 80% | ≥ 90% | – | – | – | –
CCS(=O)(=O)c1c(N(C)C(=O)c2cc(C(F)(F)F)nn2C)nc2ccc(I)cn12 [compound 36] | – | ≥ 90% | ≥ 90% | – | – | ≥ 80% | ≥ 80% | – | –
CCSc1c(N(C)C(=O)c2cnc(C(F)(F)F)s2)nc2ccc(C(F)(F)F)cn12 [compound 9] | > 90% | ≥ 90% | ≥ 90% | ≥ 80% | ≥ 90% | – | – | – | –
CCS(=O)(=O)c1c(N(C)C(=O)c2nc(C(F)(F)F)cs2)nc2ccc(I)cn12 [compound 50] | – | – | – | ≥ 80% | – | – | – | – | –
CCS(=O)(=O)c1c(N(C)C(=O)c2cnc(C(F)(F)F)s2)nc2cc(I)ccn12 [compound 46] | > 90% | ≥ 90% | ≥ 90% | ≥ 80% | – | – | – | ≥ 90% | ≥ 90%
CCS(=O)(=O)c1c(N(C)C(=O)c2cn(CC(F)(F)F)nn2)nc2ccc(I)cn12 [compound 67] | > 90% | ≥ 90% | ≥ 90% | – | ≥ 90% | – | – | ≥ 90% | –
CCSc1c(N(C)C(=O)c2cn(CC(F)(F)F)nn2)nc2ccc(I)cn12 [compound 27] | > 90% | – | ≥ 90% | – | ≥ 90% | – | ≥ 80% | – | –
CCSc1c(N(C)C(=O)c2ccn(C(F)F)n2)nc2ccc(I)cn12 [compound 19] | > 90% | ≥ 90% | ≥ 90% | – | ≥ 90% | – | – | – | –
CCS(=O)(=O)c1c(N(C)C(=O)c2cc(Br)n(C)n2)nc2ccc(I)cn12 [compound 53] | – | ≥ 90% | ≥ 90% | ≥ 80% | ≥ 90% | – | – | – | –
CC[S+]([O-])c1c(N(C)C(=O)c2cnn(C(F)(F)F)c2)nc2ccc(I)cn12 (stereo not drawn) [compound 60] | – | – | – | ≥ 80% | ≥ 90% | – | – | – | –
CCS(=O)(=O)c1c(N(C)C(=O)c2cnn(C(F)F)c2)nc2ccc(I)cn12 [compound 63] | – | – | – | ≥ 80% | ≥ 90% | – | – | – | –
CCSc1c(N(C)C(=O)c2cc(C(F)(F)F)nn2C)nc2ccc(I)cn12 [compound 3] | > 90% | ≥ 90% | ≥ 90% | ≥ 80% | ≥ 90% | – | ≥ 80% | – | –
CC[S+]([O-])c1c(N(C)C(=O)c2cnc(C(F)(F)F)s2)nc2ccc(Br)cn12 (stereo not drawn) [compound 41] | – | ≥ 90% | ≥ 90% | ≥ 80% | ≥ 90% | – | ≥ 80% | ≥ 90% | –
CCSc1c(N(C)C(=O)c2nc(C(F)(F)F)cs2)nc2ccc(I)cn12 [compound 13] | > 90% | – | ≥ 90% | ≥ 80% | ≥ 90% | – | – | – | –
CCSc1c(N(C)C(=O)c2cnc(C(F)(F)F)s2)nc2ccc(Br)cn12 [compound 8] | > 90% | ≥ 90% | ≥ 90% | ≥ 80% | ≥ 90% | – | – | – | –
CCS(=O)(=O)c1c(N(C)C(=O)c2cnc(C(F)(F)F)s2)nc2ccc(Br)cn12 [compound 42] | > 90% | ≥ 90% | ≥ 90% | ≥ 80% | ≥ 90% | – | ≥ 80% | ≥ 90% | –
CCSc1c(N(C)C(=O)c2cnc(C(F)(F)F)s2)nc2cc(Br)ccn12 [compound 11] | > 90% | ≥ 90% | ≥ 90% | ≥ 80% | ≥ 90% | – | – | ≥ 90% | –
CCS(=O)(=O)c1c(N(C)C(=O)c2ccc(C(F)(F)F)o2)nc2ccc(I)cn12 [compound 39] | > 90% | ≥ 90% | ≥ 90% | ≥ 80% | ≥ 90% | – | – | ≥ 90% | –
CCS(=O)(=O)c1c(N(C)C(=O)c2ccn(C3CC3)n2)nc2ccc(I)cn12 [compound 57] | > 90% | – | ≥ 90% | ≥ 80% | ≥ 90% | – | – | – | –
CCS(=O)(=O)c1c(N(C)C(=O)c2cnn(C(F)(F)F)c2)nc2ccc(I)cn12 [compound 61] | – | – | – | ≥ 80% | ≥ 90% | – | – | – | –
CCSc1c(N(C)C(=O)c2cnn(C(F)F)c2)nc2ccc(I)cn12 [compound 24] | > 90% | – | ≥ 90% | ≥ 80% | ≥ 90% | – | – | – | –
CCS(=O)(=O)c1c(N(C)C(=O)c2cnc(C(F)(F)F)s2)nc2ccc(C(F)(F)F)cn12 [compound 44] | > 90% | ≥ 90% | ≥ 90% | ≥ 80% | ≥ 90% | – | ≥ 80% | ≥ 90% | –
CC[S+]([O-])c1c(N(C)C(=O)c2cnc(C(F)(F)F)s2)nc2cc(Br)ccn12 (stereo not drawn) [compound 47] | – | ≥ 90% | ≥ 90% | ≥ 80% | ≥ 90% | – | ≥ 80% | ≥ 90% | –
CCSc1c(N(C)C(=O)c2cnc(C(F)(F)F)s2)nc2ccc(I)cn12 [compound 7] | > 90% | ≥ 90% | ≥ 90% | ≥ 80% | ≥ 90% | ≥ 80% | ≥ 80% | ≥ 90% | –
CCSc1c(N(C)C(=O)c2cnc(C(F)(F)F)s2)nc2cc(I)ccn12 [compound 10] | > 90% | ≥ 90% | ≥ 90% | ≥ 80% | ≥ 90% | – | ≥ 80% | – | –
CCS(=O)(=O)c1c(N(C)C(=O)c2cnn(C3CC3)c2)nc2ccc(I)cn12 [compound 64] | – | – | – | ≥ 80% | ≥ 90% | – | – | ≥ 90% | –
CC[S+]([O-])c1c(N(C)C(=O)c2cnc(C(F)(F)F)s2)nc2ccc(C(F)(F)F)cn12 (stereo not drawn) [compound 43] | – | ≥ 90% | ≥ 90% | ≥ 80% | ≥ 90% | – | ≥ 80% | ≥ 90% | –
